Experimental data from the Kinase Knowledgebase extract (Sharma et al. 2016).
Where “and” joins values, the source holds several entries; their conditions need not be identical. Identical values can stand only once.

molecular target: MAPK14 (human) (UniProt Q16539); test: Inhibition of MAPK14 Kinase Activity
Sequence (Q16539 whole entry, looked up): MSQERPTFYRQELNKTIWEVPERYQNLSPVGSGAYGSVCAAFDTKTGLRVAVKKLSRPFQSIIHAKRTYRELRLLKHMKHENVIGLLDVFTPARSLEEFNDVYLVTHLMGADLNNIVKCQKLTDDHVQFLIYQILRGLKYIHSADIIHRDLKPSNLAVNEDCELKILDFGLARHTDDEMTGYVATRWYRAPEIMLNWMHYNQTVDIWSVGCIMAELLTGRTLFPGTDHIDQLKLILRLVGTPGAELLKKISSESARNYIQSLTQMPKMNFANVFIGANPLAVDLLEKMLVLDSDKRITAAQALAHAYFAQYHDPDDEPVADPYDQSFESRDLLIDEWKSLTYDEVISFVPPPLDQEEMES

| IC50 | SMILES |
| --- | --- |
| 339 nM | O=C(CO)N1CCC(c2[nH]nc(-c3ccc(F)c(C(F)(F)F)c3)c2-c2ccncn2)CC1 |
| 10 nM | CC(C)(C)OC(=O)N1CCC(c2[nH]nc(-c3ccc(Cl)cc3F)c2-c2ccnc(NC3CCCC3)n2)CC1 |
| 9.27 nM | Fc1ccc(CN2CCC(c3[nH]nc(-c4ccc(Cl)cc4)c3-c3ccncn3)CC2)cc1 |
| 155 nM | Cc1cc(-c2n[nH]c(C3CCN(C(=O)CO)CC3)c2-c2ccncn2)ccc1F |
| 5.76 nM | C[C@@H](N[C@H]1CC[C@H](c2[nH]nc(-c3ccc(Cl)cc3)c2-c2ccncn2)CC1)c1ccc(F)cc1 |
| > 100000 nM | COc1ccc(-c2n[nH]c(C3CCN(C(=O)CO)CC3)c2-c2ccncn2)cc1OC |
| 10 nM | O=C(CO)N1CCC(c2[nH]nc(-c3ccc(Cl)cc3)c2-c2ccnc(NC3CCCC3)n2)CC1 |
| 1000 nM | CN(C)CCNc1nccc(-c2c(-c3ccc(Cl)cc3F)n[nH]c2C2CCN(C)CC2)n1 |
| 111 nM | CN(C)CCNc1nccc(-c2c(-c3ccc(F)c(C(F)(F)F)c3)n[nH]c2C2CCNCC2)n1 |
| 572 nM | CC(=O)O[C@@H](C(=O)N1CCC(c2[nH]nc(-c3ccc(Cl)cc3)c2-c2ccncn2)CC1)c1ccccc1 |
| 130 nM and 61 nM | C[C@H](N[C@H]1CC[C@@H](c2[nH]nc(-c3ccc(Cl)cc3)c2-c2ccncn2)CC1)c1ccc(F)cc1 |
| 2680 nM | Cc1cc(F)ccc1-c1n[nH]c(C2CCN(C(=O)CO)CC2)c1-c1ccncn1 |
| 120 nM | O=C(C1CCCO1)N1CCC(c2[nH]nc(-c3ccc(Cl)cc3)c2-c2ccncn2)CC1 (centres undefined) |
| 859 nM | CN(C)CCNc1nccc(-c2c(-c3ccc(Cl)cc3)n[nH]c2C2CCN(C(=O)CO)CC2)n1 |
| 1680 nM | CC(C)(C)OC(=O)N1CCC(c2[nH]nc(-c3ccc(Cl)cc3)c2-c2ccnc(O[C@H]3CCOC3)n2)CC1 |
| 455 nM | O=C(CO)N1CCC(c2[nH]nc(-c3ccc(Cl)c(F)c3)c2-c2ccncn2)CC1 |

| SMILES | IC50 |
| --- | --- |
| C[C@H](N[C@H]1CC[C@@H](c2[nH]nc(-c3ccc(Cl)cc3)c2-c2ccncn2)CC1)c1ccccc1 | 112 nM and 44.9 nM |
| C[C@@H](N[C@H]1CC[C@H](c2[nH]nc(-c3ccc(Cl)cc3)c2-c2ccncn2)CC1)c1ccccc1 | 8.56 nM |
| Clc1ccc(-c2n[nH]c([C@H]3CC[C@@H](NC4CCCCC4)CC3)c2-c2ccncn2)cc1 | 235 nM |
